Columns and labels:
[1] = tested on: B. subtilis BSF2470 (1A980); assay: MIC determination in 96-well microtiter plate; type: cell-based, Bacillus subtilis; details: LB, 37°C, 10^5 CFU/mL, OD600 after 18 h
Procedure: (§1) MIC determination was performed in a 96-well microtiter plate as described previously ([Wu et al., 2019]). Sensitive bacterial culture was grown in the appropriate medium (BHI for S. carnosus; LB for B. subtilis) at 37°C overnight. The culture was diluted to 10^5 CFU/mL in medium in each well. Epilancin 15X or its analog was dissolved in water and serially diluted to obtain final concentrations of 20, 10, 5, 2.5, 1.25, 0.625, 0.3125, 0.156, 0.078, 0.039, 0.019, and 0.009 μM. OD600 readings were obtained after 18 h using a Synergy H4 Hybrid Multi-Mode Microplate Reader (BioTeK). Cell-free untreated medium, and untreated cell culture were used as negative controls. The MIC of nisin against B. subtilis BSF2470 was determined following the same methods.

[2] = tested on: B. subtilis 168; assay: MIC determination in 96-well microtiter plate; type: cell-based, Bacillus subtilis; details: LB, 37°C, 10^5 CFU/mL, OD600 after 18 h
Procedure: as §1

[3] = tested on: B. subtilis ATCC 6633; assay: MIC determination in 96-well microtiter plate; type: cell-based, Bacillus subtilis; details: LB, 37°C, 10^5 CFU/mL, OD600 after 18 h
Procedure: as §1

[4] = Liposome leakage assay using flow cytometry (HaloTag / AF488 ligand); type: biochemical; details: 1 μM peptide, 37°C, 1 h
[5] = tested on: S. carnosus TM300; assay: Membrane permeability study with propidium iodide (flow cytometry); type: cell-based, Staphylococcus carnosus; details: S. carnosus TM300, 20 min exposure, 0.5x, 1x, 4x MIC, n = 3
Procedure: Cultures of S. carnosus TM300 and B. subtilis BSF2470 were grown to OD600 1.0 and diluted to OD600 0.1 in fresh BHI or LB medium, respectively. The culture was then combined with a final concentration of 25 μM PI (ThermoFisher P3566), 1 mM HEPES, and 1 mM glucose. […] Another two tubes were prepared without antibiotic treatment as controls. The culture was analyzed with a BD Biosciences LSR II flow cytometer for S. carnosus and a BD Biosciences LSRFortessa for B. subtilis using excitation at 488 nm with an argon laser and measurement of emission through a band-pass filter at 695/40 nm. A minimum of 30,000 events were detected for each sample. The experiment was repeated three times, and the mean PI uptake value was determined. The results were calibrated such that the mean PI uptake from the 4x MIC nisin-treated cell culture was set as 100% PI uptake.

[6] = tested on: S. carnosus TM300; assay: Killing kinetics (CFU counting); type: cell-based, Staphylococcus carnosus; details: S. carnosus TM300, mid-log, 1x and 4x MIC, 30-180 min, triplicate
Procedure: S. carnosus TM300 and B. subtilis BSF2470 (1A980) cell cultures were grown to mid-log phase in BHI and LB broth, respectively. […] At each time point, an aliquot of […] treated-culture was serial-diluted and placed on BHI agar plates for S. carnosus and LB agar plates for B. subtilis. The plates were grown for 1 day at 37°C and the colonies were counted. Each experiment was performed in triplicate and untreated cell culture was used as the negative control.

[7] = tested on: S. epidermidis ATCC 12228; assay: MIC determination in 96-well microtiter plate; type: cell-based, Staphylococcus epidermidis; details: 37°C, 10^5 CFU/mL, OD600 after 18 h
[8] = tested on: protein biosynthesis in S. carnosus TM300; assay: Macromolecular synthesis assay: 14C-L-amino acids incorporation into protein; type: cell-based, Staphylococcus carnosus; details: S. carnosus TM300, 2× MIC, three independent experiments
Procedure: Radiolabel incorporation experiments were carried out similarly as previously described but using S. carnosus ([Wu et al., 2019]). The OD600 of parallel nonradioactive cultures was measured at each time point to normalize the measured radioactivity and minimize effects due to cell death and growth inhibition. The radiolabeled reagents and their corresponding positive and negative antibiotic controls were as follows. […] All experiments were conducted independently three times.
Figure S3. Thre e in de pen den t ex perime nts of incorporation of (A) 14C- acetic acid into fatty acids, (B) 14C- thymi din e into D NA, (C) 3H-uridi ne into RNA, (D) 14C- lab el ed ami no acids into protei n, and (E) 14C- label ed GlcNAc into cell w all in S. carnosus TM300 cells treated with vario u s antimicro bia l agents. T he p ercent i nco rpo ratio n at 0 min was measured after incubati ng the cel l cultur e with 0.8 μCi/mL radioactive precursors for 15 min. Then 0.5x, 1x, 2x, or 4x MIC epilanci n 15X and 2x MIC controls were added to the cell cultur e (t=0), and t he percent incorporation was measur ed ov er time. Positive controls a re gr een and negative controls are black (cells o nly) an d blu e (co mpo und w ith mo d e o f actio n unr elate d to th e a ssay i n que stio n). […]

[9] = tested on: S. carnosus TM300; assay: Lipid protection assay (MIC with lipid-supplemented growth medium); type: cell-based, Staphylococcus carnosus; details: for Epilancin MIC: S. carnosus TM300
Procedure: as §1
The possibility of direct interaction between epilancin 15X and specific lipids was examined through lipid protection assays. […] In an agar diffusion assay, purified S. aureus LTA antagonized the bioactivity of epilancin 15X but not nisin A (Supplementary Figure S5A).

[10] = tested on: S. carnosus TM300; assay: Bright field (Airyscan) microscopy; type: cell-based, Staphylococcus carnosus; details: S. carnosus TM300, 0.5 MIC
[11] = B. subtilis LTA (-) added, ~100 µM
[12] = S. aureus LTA (-) added, ~100 µM

Work on Epilancin 15X yielded an MIC [1] of 2.5 µM, an MIC [2] of 4.00 µM and an MIC [3] of 1.25 µM. For the same substance, the “fluorescence signal (pore formation)” value ([4]; POPC-cholesterol liposomes with 0.1% lipid II) was “did not induce pore formation”, the “fluorescence signal (pore formation) compared to buffer control” value ([4]; POPC-cholesterol liposomes without lipid II) was “no increase in fluorescence signal” and the “PI uptake (membrane disruption)” value [5] was “increase”. For the same substance, the “number of colony forming units (CFU)” value [6] was “significant decrease”, the MIC [7] was 0.62 µM and the “protein biosynthesis (14C-L-amino acid incorporation)” value [8] was “considerably stronger effect than that observed with the respective negative controls”. For the same substance, the “Increase in MIC compared to WT” value [9, 11] was 8 X, the “Increase in MIC compared to WT” value ([9]; Cardiolipin (-) added, 130 µM) was 8 X and the “Increase in MIC compared to WT” value ([9]; DGDG added, 100 µM) was “did not display any protection affect”. The “Increase in MIC compared to WT” value ([9]; POPC added, 130 µM) was “did not display any protection affect”, the “Increase in MIC compared to WT” value ([9]; POPE added, 500 µM) was “did not display any protection affect” and the “Increase in MIC compared to WT” value ([9]; POPG (-) added, 100 µM) was 4 X. For the same substance, the “Increase in MIC compared to WT” value [9, 12] was > 16 X, the “Epilancin MIC” value [9, 11] was 2.5 µM and the “Epilancin MIC” value ([9]; Cardiolipin (-) added, 130 µM) was 2.5 µM. The “Epilancin MIC” value ([9]; DGDG added, 100 µM) was 0.31 µM, the “Epilancin MIC” value ([9]; POPC added, 130 µM) was 0.31 µM and the “Epilancin MIC” value ([9]; POPE added, 500 µM) was 0.31 µM. For the same substance, the “Epilancin MIC” value ([9]; POPG (-) added, final concentration 100 µM) was 1.25 µM, the “Epilancin MIC” value [9, 12] was > 5 µM and the “increase of epilancin 15X MIC” value ([9]; growth medium supplemented with 2.5 μM LTA isolated from S. aureus) was “at least 8 fold”. The “increase of epilancin 15X MIC” value ([9]; growth medium supplemented with POPG) was “at least 4 fold”, the “increase of epilancin 15X MIC” value ([9]; growth medium supplemented with cardiolipin) was “at least 4 fold” and the “aggregation phenotype of cells (brightfield)” value [10] was “Aggregation and chaining of cells was observed”.
